# Results: a melting point compilation (Tetko et al.; mined from patent text by program, amines drawn as free bases though some values may be those of a salt)
row,SMILES,melting point [°C]
1,Cc1ccc(-n2c(-c3cc(-c4ccc(S(C)(=O)=O)cc4)c(N4CCOCC4)s3)nc3ccccc3c2=O)cc1,265 to 268
2,O=C(Nc1ccc(Cl)cc1)c1ccccc1Cl,93.7 to 95.1
3,Cc1cc(C(=O)NCc2cccc([N+](=O)[O-])c2)c(OCC(=O)O)cc1F,177 to 179
4,CCc1oc2ccccc2c1C(O)c1ccccc1 (stereo unspecified),98 to 99
5,COc1ccc2c(=O)nc(-c3cccc(CCC(=O)OC(C)(C)C)n3)sc2c1,134 to 135
6,COc1nc(NC(=O)NS(=O)(=O)c2c(C)cccc2OC)nc(OC)n1,163
7,O=c1c2c(oc3ccc(Br)cc13)CCCC2,149 to 150
8,CCCSCCCCCCCCCC(=O)O,42 to 43.5
9,CCCCOC(=O)c1cc(OCc2ccccc2)c2c(Cl)cc(Cl)cc2n1,130 to 132
10,CCOC(=O)c1c(CN(CC)CC)nc2sc(C)c(C)c2c1-c1ccc(OC)cc1,116 to 118
11,N#CC(Cl)CC(Cl)(Cl)C(=O)Oc1ccccc1 (stereo unspecified),51.5 to 52.5
12,CC(=O)OC1COC(n2c(Br)nc3cc(Cl)c(Cl)cc32)C(OC(C)=O)C1OC(C)=O (stereo unspecified),100 to 110
13,O=S1(=O)C=C(N2CCCCC2)c2ccccc2O1,187 to 189
14,CCOC(=O)c1c(Cn2cncn2)nc2cc(OC)c(O)cc2c1-c1ccc(O)c(O)c1,264 to 266
15,Fc1ccc(N=c2sc3ccc(Cl)cc3s2)cc1,101 to 102
16,CN(Cc1ccc(NS(C)(=O)=O)cc1)C1CCN(c2ccc(NS(C)(=O)=O)cc2)CC1,177 to 179
17,O=c1cc(C2CCc3ccccc3C2)[nH]c2ccccc12 (racemic),> 300
18,CC(=O)SCC(Cc1ccccc1)C(=O)Nc1ccc(C(=O)O)c(O)c1 (stereo unspecified),141 to 142
19,CCCCCOc1ccc(-c2ccc(-c3ccc(C(=O)OC)cc3)cc2)cc1,248
20,O=C(NO)c1ccc2c(c1)CCN(C(=O)NCc1ccccc1)C2,149 to 153
21,CC1Cc2ccccc2CN(CO)C1=O (stereo unspecified),114 to 116

row,SMILES,melting point [°C]
1,O=c1[nH]c2ccccc2c2nc(-c3ccc(Cl)cc3)nn12,315 to 318
2,Cc1c(C)c2ccc(OCCCCN3CCN(c4cccc(Cl)c4Cl)CC3)nc2[nH]c1=O,161 to 163
3,CC(C)(C)OC(=O)CN(C(=O)CNC(=O)c1ccc(Cl)c(Cl)c1)c1ccccc1,95
4,COc1ccc2[nH]c(C)c(CC(N)=O)c2c1,146 to 148
5,CC12CC3CC(C)(C1)CC(C(=O)NCCc1cccs1)(C3)C2,131 to 132
6,CC1(C)CNC(=Nc2ccccc2)S1,153 to 155
7,O=C(SCCC(=O)N1c2ccccc2CC1C(=O)O)c1ccccc1 (stereo unspecified),173 to 175
8,O=C1CCC(CCCOC2CCOCC2)(c2ccc(Cl)c(Cl)c2)CN1 (stereo unspecified),45
9,O=C(O)Cc1cc(C(=O)C=Cc2ccccc2Cl)ccc1O,235
10,O=C(O)c1nccnc1C(=O)Nc1ccc(Cl)cn1,222
11,[O-][N+](=Cc1ccccn1)c1cccc(CO)c1,117 to 119
12,CC1(C)Cc2c(CO)c(O)c3c(c2C(c2ccccc2)=N1)CC(C)(C)O3,210 to 230
13,OCCOc1ccc(-n2cncn2)cc1,151 to 152
14,O=C(O)[C@@H]1C[C@@H](O)CN1C(=O)OCc1ccc([N+](=O)[O-])cc1,136 to 137
15,CCCn1c(CC)c2c3c(cccc31)C1CC(NC(=S)N(CC)CC)CN(C)C1C2 (stereo unspecified),173 to 175
16,CCCCn1nc2c(N)nc3ccccc3c2c1CCCS(=O)(=O)c1ccccc1,206 to 207
17,CS(=O)(=O)NCCC1(C[N+](=O)[O-])CCCCC1,86 to 88
18,CCOC(=O)c1ccc(Nc2nnc(-c3ccc(Oc4ccccc4)cc3)s2)cc1,206 to 207
19,CCCC(CCC)C(=O)NC1CCc2ccccc21 (stereo unspecified),133 to 134
20,c1ccc2c(c1)Cc1ccncc1N1OC(CN3CCOCC3)CC21 (stereo unspecified),46
